Assay results: PubChem BioAssay AID248 (DTP/NCI, 2004)
Several values for one entry are separate records, joined by “and”; a condition that tells them apart may be missing. Equal values may be shown once. Toxic doses and inconclusive results are not listed. No stated cut-off is given here; in the data, active means T/C of 150% or more; inactive means T/C below 125%.

Tested on: L1210 leukemia ip in BDF1 mice, survival T/C
Test: NCI In Vivo Anticancer Drug Screen. Data for tumor model L1210 Leukemia (intraperitoneal) in B6D2F1 (BDF1) mice
Settings: endpoint: mean survival time, higher = longer survival
Summary of the method: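 Antitumor effect is assessed in tumor-bearing animals. Survival in the compound arm is compared with a vehicle-dosed control arm and expressed as their quotient.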

[1] = dose: 100.0 mg/kg/injection, schedule: Q01DX001 (ip), vehicle: saline with Tween-80
[2] = dose: 400.0 mg/kg/injection, schedule: Q01DX001 (ip), vehicle: saline with Tween-80
[3] = dose: 25.0 mg/kg/injection, schedule: Q01DX001 (ip), vehicle: saline with Tween-80
[4] = dose: 50.0 mg/kg/injection, schedule: Q01DX001 (ip), vehicle: saline with Tween-80
[5] = dose: 50.0 mg/kg/injection, schedule: Q01DX009 (ip), vehicle: saline with Tween-80
[6] = dose: 100.0 mg/kg/injection, schedule: Q01DX001 (ip), vehicle: carboxymethylcellulose (CMC)
[7] = dose: 200.0 mg/kg/injection, schedule: Q01DX001 (ip), vehicle: carboxymethylcellulose (CMC)
[8] = dose: 400.0 mg/kg/injection, schedule: Q01DX001 (ip), vehicle: carboxymethylcellulose (CMC)
[9] = dose: 100.0 mg/kg/injection, schedule: Q04DX003 (ip), vehicle: saline with Tween-80
[10] = dose: 200.0 mg/kg/injection, schedule: Q04DX003 (ip), vehicle: saline with Tween-80
[11] = dose: 400.0 mg/kg/injection, schedule: Q04DX003 (ip), vehicle: saline with Tween-80
[12] = dose: 50.0 mg/kg/injection, schedule: Q01DX001 (ip), vehicle: carboxymethylcellulose (CMC)

Measured: T/C

COc1c2c([n+](C)c3c(OC)cccc13)OC(C(C)C)C2 (configuration not stated)
inactive: dose: 0.5 mg/kg/injection, schedule: Q01DX009 (ip), vehicle: acetone 100 % of control | dose: 0.75 mg/kg/injection, schedule: Q01DX009 (ip), vehicle: saline 103 % of control | dose: 1.0 mg/kg/injection, schedule: Q01DX001 (ip), vehicle: saline 96 % of control | dose: 1.0 mg/kg/injection, schedule: Q01DX009 (ip), vehicle: acetone 120 % of control | dose: 1.0 mg/kg/injection, schedule: Q04DX003 (ip), vehicle: Klucel (hydroxypropylcellulose) (HPC) 97 % of control | dose: 1.0 mg/kg/injection, schedule: Q04DX003 (ip), vehicle: acetone 108 % of control | dose: 1.5 mg/kg/injection, schedule: Q01DX009 (ip), vehicle: saline 92 % of control | dose: 2.0 mg/kg/injection, schedule: Q01DX001 (ip), vehicle: saline 96 % of control | dose: 2.0 mg/kg/injection, schedule: Q04DX003 (ip), vehicle: Klucel (hydroxypropylcellulose) (HPC) 105 % of control | dose: 2.0 mg/kg/injection, schedule: Q04DX003 (ip), vehicle: acetone 119 % of control | dose: 4.0 mg/kg/injection, schedule: Q01DX001 (ip), vehicle: saline 98 % of control

CCOCCOCCOC(C)Oc1ccc(C(=O)OCC)cc1 (configuration not stated)
inactive: dose: 100.0 mg/kg/injection, schedule: Q04DX002 (ip), vehicle: saline with Tween-80 103 % of control | dose: 200.0 mg/kg/injection, schedule: Q04DX002 (ip), vehicle: saline with Tween-80 100 % of control | dose: 400.0 mg/kg/injection, schedule: Q04DX002 (ip), vehicle: saline with Tween-80 107 % of control

CCOC(=O)C(N)CSCc1ccccc1 (configuration not stated)
inactive: dose: 100.0 mg/kg/injection, schedule: Q01DX009 (ip), vehicle: saline with Tween-80 97 % of control | dose: 200.0 mg/kg/injection, schedule: Q01DX009 (ip), vehicle: saline with Tween-80 92 % of control | dose: 400.0 mg/kg/injection, schedule: Q01DX009 (ip), vehicle: saline with Tween-80 97 % of control

CCCCCCCCP(=S)(CCCCCC)CCCCCC
inactive: [1] 104 % of control | dose: 200.0 mg/kg/injection, schedule: Q01DX001 (ip), vehicle: saline with Tween-80 90 % of control | [2] 87 % of control

O=C(CI)Nc1ccc2oc(=O)c(C(=O)O)cc2c1
inactive: dose: 20.0 mg/kg/injection, schedule: Q01DX001 (ip), vehicle: Klucel (hydroxypropylcellulose) (HPC) 100 % of control | dose: 40.0 mg/kg/injection, schedule: Q01DX001 (ip), vehicle: Klucel (hydroxypropylcellulose) (HPC) 108 % of control | dose: 80.0 mg/kg/injection, schedule: Q01DX001 (ip), vehicle: Klucel (hydroxypropylcellulose) (HPC) 107 % of control | dose: 100.0 mg/kg/injection, schedule: Q01DX001 (ip), vehicle: Klucel (hydroxypropylcellulose) (HPC) 97 % of control

CCCCCNCCO
inactive: dose: 75.0 mg/kg/injection, schedule: Q01DX001 (ip), vehicle: saline 105 % of control | dose: 150.0 mg/kg/injection, schedule: Q01DX001 (ip), vehicle: saline 105 % of control | dose: 300.0 mg/kg/injection, schedule: Q01DX001 (ip), vehicle: saline 109 % of control

CSCOC1C(COC(c2ccccc2)(c2ccccc2)c2ccccc2)OC(OCc2ccccc2)C(NC(C)=O)C1OCc1ccccc1 (configuration not stated)
inactive: [3] 95 % of control | [4] 91 % of control | [1] 101 % of control and 91 % of control | [2] 94 % of control

C[N+](C)(Cc1ccccc1)CC(O)COc1ccccc1 (configuration not stated)
inactive: dose: 12.5 mg/kg/injection, schedule: Q01DX001 (ip), vehicle: saline with Tween-80 108 % of control | dose: 12.5 mg/kg/injection, schedule: Q01DX009 (ip), vehicle: saline with Tween-80 100 % of control | dose: 12.5 mg/kg/injection, schedule: Q04DX003 (ip), vehicle: saline with Tween-80 92 % of control | [3] 100 % of control | dose: 25.0 mg/kg/injection, schedule: Q01DX009 (ip), vehicle: saline with Tween-80 94 % of control | dose: 25.0 mg/kg/injection, schedule: Q04DX003 (ip), vehicle: saline with Tween-80 94 % of control | [4] 100 % of control | [5] 102 % of control | dose: 50.0 mg/kg/injection, schedule: Q04DX003 (ip), vehicle: saline with Tween-80 103 % of control

N#Cc1ccc(-c2nc3ncnc(N)c3[nH]2)cc1
inactive: dose: 100.0 mg/kg/injection, schedule: Q04DX002 (ip), vehicle: Klucel (hydroxypropylcellulose) (HPC) 97 % of control | dose: 200.0 mg/kg/injection, schedule: Q04DX002 (ip), vehicle: Klucel (hydroxypropylcellulose) (HPC) 105 % of control | dose: 400.0 mg/kg/injection, schedule: Q04DX002 (ip), vehicle: Klucel (hydroxypropylcellulose) (HPC) 101 % of control

CCOc1ccc(NC(=S)NC(=O)C(C)Oc2ccccc2)cc1 (configuration not stated)
inactive: [5] 102 % of control | dose: 800.0 mg/kg/injection, schedule: Q04DX002 (ip), vehicle: saline with Tween-80 96 % of control and 101 % of control

O=S(=O)(OCC1CO1)c1ccc(Br)cc1 (configuration not stated)
inactive: dose: 100.0 mg/kg/injection, schedule: Q01DX008 (ip), vehicle: Klucel (hydroxypropylcellulose) (HPC) 103 % of control | dose: 200.0 mg/kg/injection, schedule: Q01DX008 (ip), vehicle: Klucel (hydroxypropylcellulose) (HPC) 92 % of control | dose: 400.0 mg/kg/injection, schedule: Q01DX008 (ip), vehicle: Klucel (hydroxypropylcellulose) (HPC) 108 % of control

CCCCCC(C)(O)CC(C)(C)C (configuration not stated)
inactive: [6] 92 % of control | [7] 97 % of control | [8] 97 % of control

Cn1c(CC(O)(C(F)(F)F)C(F)(F)F)cc2ccccc21
inactive: dose: 100.0 mg/kg/injection, schedule: Q01DX009 (ip), vehicle: other 95 % of control | dose: 200.0 mg/kg/injection, schedule: Q01DX009 (ip), vehicle: other 95 % of control | dose: 400.0 mg/kg/injection, schedule: Q01DX009 (ip), vehicle: other 93 % of control

CCOC(=O)C(=[N+]=[N-])S(=O)(=O)c1ccccc1
inactive: [9] 97 % of control | [10] 101 % of control | [11] 114 % of control

CN(C)Cc1cc2ccccc2cc1C(O)(c1ccccc1)c1ccccc1
inactive: [12] 102 % of control | [6] 88 % of control | [7] 94 % of control | [8] 96 % of control

CN1C(=O)N(C)C(=O)C(O)(C2(O)C(=O)N(C)C(=O)N(C)C2=O)C1=O
inactive: dose: 9.38 mg/kg/injection, schedule: Q01DX001 (ip), vehicle: other 94 % of control | dose: 18.75 mg/kg/injection, schedule: Q01DX001 (ip), vehicle: other 94 % of control | dose: 37.5 mg/kg/injection, schedule: Q01DX001 (ip), vehicle: other 101 % of control

O=[N+]([O-])c1cccc(C[n+]2ccccc2C2OCCO2)c1
inactive: dose: 35.0 mg/kg/injection, schedule: Q01DX009 (ip), vehicle: saline 95 % of control

O=S(Sc1ccccc1)c1ccccc1 (configuration not stated)
inactive: dose: 0.94 mg/kg/injection, schedule: Q01DX Z (ip), vehicle: saline 104 % of control | dose: 3.75 mg/kg/injection, schedule: Q01DX Z (ip), vehicle: saline 96 % of control

O=c1[nH]c(=O)c2ncsc2[nH]1
inactive: [9] 103 % of control | [10] 110 % of control

Cc1ccc(NC2=C(Cl)C(=O)c3ccccc3C2=O)cc1
inactive: [12] 101 % of control | [6] 95 % of control | [7] 93 % of control | [8] 89 % of control

COc1ccc(CCNC(=S)NC(=O)c2ccccc2)cc1OC
inactive: dose: 100.0 mg/kg/injection, schedule: Q01DX009 (sc), vehicle: olive oil, sesame oil, peanut oil 98 % of control | dose: 100.0 mg/kg/injection, schedule: Q04DX003 (sc), vehicle: olive oil, sesame oil, peanut oil 100 % of control | dose: 200.0 mg/kg/injection, schedule: Q01DX009 (sc), vehicle: olive oil, sesame oil, peanut oil 104 % of control | dose: 200.0 mg/kg/injection, schedule: Q04DX003 (sc), vehicle: olive oil, sesame oil, peanut oil 98 % of control | dose: 400.0 mg/kg/injection, schedule: Q01DX009 (sc), vehicle: olive oil, sesame oil, peanut oil 98 % of control | dose: 400.0 mg/kg/injection, schedule: Q04DX003 (sc), vehicle: olive oil, sesame oil, peanut oil 103 % of control

CCOC(=O)C1C=CCCC1 (configuration not stated)
inactive: [9] 91 % of control | [10] 102 % of control | [11] 94 % of control
